Experiments:
DHS3^H1 = experiment: DHS enzyme assay, recombinant DHS3^H1; type: biochemical, Arabidopsis thaliana
Method: (§1) To generate DHS proteins with individual sota mutations via site-directed mutagenesis, these pET28a plasmid templates were diluted by 500-fold, mixed with 0.04 U/μL Phusion DNA polymerase (Thermo Scientific), 0.2 mM deoxynucleoside triphosphates (dNTPs), 1× Phusion reaction buffer (Thermo Scientific), and 0.5 μM forward and reverse mutagenesis primers (Table 10). The PCR reaction was run using the following protocol: 98° C. for 30 s followed by 20 cycles of 10 s at 98° C., 20 s at 70° C., 4.5 min at 72° C. with a final extension at 72° C. for 10 min. The PCR products were purified using a QIAquick Gel Extraction Kit (QIAGEN), treated with FastDigest DpnI (Thermo Scientific) to digest methylated plasmid template DNA for 20 min at 37° C., and transformed into E. coli cells. The mutagenized pET28a plasmids were sequenced to confirm that no errors were introduced during the mutagenesis process.
The DHS enzyme assays were conducted using the colorimetric method that we recently described (9). Briefly, the enzyme solution (7.7 μl) containing 50 mM Hepes (pH 7.4) was preincubated with an effector molecule(s) at room temperature for 15 min. For assays using recombinant protein and enzyme fractions isolated from plant leaves, 0.01 to 0.1 μg and approximately 50 μg of proteins were used, respectively. After adding 0.5 μl of 0.1 M dithiothreitol, the samples were further incubated at room temperature for 15 min. During these incubations, the substrate solution containing 50 mM Hepes (pH 7.4), 2 mM MnCl2, 4 mM E4P, and 4 mM PEP at final concentration was preheated at 37° C. The enzyme reaction was started by adding 6.8 μl of the substrate solution, then incubated at 37° C. for 30 min, and terminated by adding 30 μl of 0.6 M trichloroacetic acid. After a brief centrifugation, 5 μl of 200 mM NaIO4 (sodium meta-periodate) in 9 N H3PO4 was added to oxidize the enzymatic product and to incubate at 25° C. for 20 min. To stop the oxidation reaction, 20 μl of 0.75 M NaAsO2 (sodium arsenite), which was dissolved in 0.5 M Na2SO4 and 0.05 M H2SO4, was added and immediately mixed. […]

DHS2^WT = target: T1, DHS2^WT (Arabidopsis thaliana, UniProt Q00218); experiment: DHS enzyme assay, recombinant DHS2^WT; type: biochemical; details: recombinant enzyme; read-out: IC50 of effector molecule on DHS2^WT
T1 construct: without the predicted plastid transit peptide (amino acid residues; 49-525, 34-507, and 52-527, respectively); made in house; host or cells: E. coli Rosetta-2
Method: as §1, with “To generate recombinant DHS proteins the pET28a vectors carrying the A. thaliana DHS1 (AtDHS1), AtDHS2, or AtDHS3 WT sequence without the predicted plastid transit peptide (amino acid residues; 49-525, 34-507, and 52-527, respectively) were expressed in E. coli Rosetta-2 cells and purified using Ni-affinity chromatography, exactly as was conducted previously (9). To” for “To”
The DHS enzyme assays were conducted using the colorimetric method that we recently described (9). Briefly, the enzyme solution (7.7 μl) containing 50 mM Hepes (pH 7.4) was preincubated with an effector molecule(s) at room temperature for 15 min. For assays using recombinant protein and enzyme fractions isolated from plant leaves, 0.01 to 0.1 μg and approximately 50 μg of proteins were used, respectively. After adding 0.5 μl of 0.1 M dithiothreitol, the samples were further incubated at room temperature for 15 min. During these incubations, the substrate solution containing 50 mM Hepes (pH 7.4), 2 mM MnCl2, 4 mM E4P, and 4 mM PEP at final concentration was preheated at 37° C. The enzyme reaction was started by adding 6.8 μl of the substrate solution, then incubated at 37° C. for 30 min, and terminated by adding 30 μl of 0.6 M trichloroacetic acid. After a brief centrifugation, 5 μl of 200 mM NaIO4 (sodium meta-periodate) in 9 N H3PO4 was added to oxidize the enzymatic product and to incubate at 25° C. for 20 min. To stop the oxidation reaction, 20 μl of 0.75 M NaAsO2 (sodium arsenite), which was dissolved in 0.5 M Na2SO4 and 0.05 M H2SO4, was added and immediately mixed. After 5 min of incubation at room temperature, one-third of the sample solution was transferred to a new tube to be mixed with 50 μl of 40 mM thiobarbituric acid and incubated at 99° C. for 15 min in a thermal cycler. The mixture was added to 600 μl of cyclohexanone in eight-strip solvent-resistant plastic tubes, mixed vigorously, and centrifuged at 4500 g for 3 min to separate water- and cyclohexanone-based layers for the extraction off the developed pink chromophore. The absorbance of the pink supernatant was read at 549 nm with the microplate reader (Infinite 200 PRO, TECAN) to calculate DAHP production with the molar extinction coefficient at 549 nm (ε=549 nm) of 4.5×10^4 M^−1 cm^−1. Reaction mixtures with boiled enzymes were run in parallel and used as negative controls to estimate the background signal.

sota mutant DHS enzymes = experiment: DHS enzyme assay, sota mutant enzymes compared with corresponding WT enzymes; type: biochemical, Arabidopsis thaliana
Method: To generate recombinant DHS proteins the pET28a vectors carrying the A. thaliana DHS1 (AtDHS1), AtDHS2, or AtDHS3 WT sequence without the predicted plastid transit peptide (amino acid residues; 49-525, 34-507, and 52-527, respectively) were expressed in E. coli Rosetta-2 cells and purified using Ni-affinity chromatography, exactly as was conducted previously (9). To generate DHS proteins with individual sota mutations via site-directed mutagenesis, these pET28a plasmid templates were diluted by 500-fold, mixed with 0.04 U/μL Phusion DNA polymerase (Thermo Scientific), 0.2 mM deoxynucleoside triphosphates (dNTPs), 1× Phusion reaction buffer (Thermo Scientific), and 0.5 μM forward and reverse mutagenesis primers (Table 10). The PCR reaction was run using the following protocol: 98° C. for 30 s followed by 20 cycles of 10 s at 98° C., 20 s at 70° C., 4.5 min at 72° C. with a final extension at 72° C. for 10 min. […]
The DHS enzyme assays were conducted using the colorimetric method that we recently described (9). […] The absorbance of the pink supernatant was read at 549 nm with the microplate reader (Infinite 200 PRO, TECAN) to calculate DAHP production with the molar extinction coefficient at 549 nm (ε=549 nm) of 4.5×10^4 M^−1 cm^−1. […]

[1] = target: T2, Arabidopsis thaliana DHS2 (AtDHS2), wild type (DHS2^WT), SEQ ID NO:2 (Arabidopsis thaliana, UniProt Q00218); details: reference 9; cited from earlier work
T2 construct: without the predicted plastid transit peptide (amino acid residues; 49-525, 34-507, and 52-527, respectively); made in house; host or cells: E. coli Rosetta-2
T2 sequence (Q00218 34-507): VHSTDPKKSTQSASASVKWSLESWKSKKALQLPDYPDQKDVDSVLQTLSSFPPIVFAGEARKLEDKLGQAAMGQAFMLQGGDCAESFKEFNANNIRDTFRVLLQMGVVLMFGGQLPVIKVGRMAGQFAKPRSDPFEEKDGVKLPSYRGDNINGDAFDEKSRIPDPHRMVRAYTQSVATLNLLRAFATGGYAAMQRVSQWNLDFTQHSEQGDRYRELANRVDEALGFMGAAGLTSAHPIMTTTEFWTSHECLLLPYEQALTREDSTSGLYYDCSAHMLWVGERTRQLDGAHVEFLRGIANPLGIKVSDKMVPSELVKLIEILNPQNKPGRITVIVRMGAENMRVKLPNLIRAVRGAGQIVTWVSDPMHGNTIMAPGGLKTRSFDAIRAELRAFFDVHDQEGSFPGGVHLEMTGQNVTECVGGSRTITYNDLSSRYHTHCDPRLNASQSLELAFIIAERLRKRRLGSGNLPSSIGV

T1 sequence (Q00218 34-507): as above

O=C(O)Cc1cc(O)ccc1O [HGA, homogentisate]
IC50 (DHS3^H1; read-out: IC50 of effector molecule on DHS3^H1): 405 µM | IC50 (DHS2^WT): 73.9 µM

O=C(O)C(=O)Cc1ccc(O)cc1 [HPP, 4-Hydroxyphenylpyruvate]
increase of IC50 in sota mutant enzymes over corresponding WT enzymes (sota mutant DHS enzymes): up to 7 fold

N[C@@H](Cc1c[nH]c2ccccc12)C(=O)O [Trp, tryptophan]
IC50 of effector molecule on DHS3^H1 (DHS3^H1): Not inhibited | inhibition of DHS2 [1]: inhibit Arabidopsis DHS2

Reference: US20250043299A1, “POINT MUTATIONS THAT BOOST AROMATIC AMINO ACID PRODUCTION AND CO2 ASSIMILATION IN PLANTS” (Wisconsin Alumni Research Foundation, priority 2021, published 2025)
